Data: publication PMC10287695, “Non-covalent inhibitors of thioredoxin glutathione reductase with schistosomicidal activity in vivo” (Nature Communications, 2023)

Each compound was assayed against T1, PfTrxR (Plasmodium falciparum, UniProt Q25861) (assay: P. falciparum TrxR enzyme inhibition). Conditions: not given.
T1 construct: 6-His (N); made in house; host or cells: E. coli BL21 (DE3)
T1 sequence (Q25861 1-541): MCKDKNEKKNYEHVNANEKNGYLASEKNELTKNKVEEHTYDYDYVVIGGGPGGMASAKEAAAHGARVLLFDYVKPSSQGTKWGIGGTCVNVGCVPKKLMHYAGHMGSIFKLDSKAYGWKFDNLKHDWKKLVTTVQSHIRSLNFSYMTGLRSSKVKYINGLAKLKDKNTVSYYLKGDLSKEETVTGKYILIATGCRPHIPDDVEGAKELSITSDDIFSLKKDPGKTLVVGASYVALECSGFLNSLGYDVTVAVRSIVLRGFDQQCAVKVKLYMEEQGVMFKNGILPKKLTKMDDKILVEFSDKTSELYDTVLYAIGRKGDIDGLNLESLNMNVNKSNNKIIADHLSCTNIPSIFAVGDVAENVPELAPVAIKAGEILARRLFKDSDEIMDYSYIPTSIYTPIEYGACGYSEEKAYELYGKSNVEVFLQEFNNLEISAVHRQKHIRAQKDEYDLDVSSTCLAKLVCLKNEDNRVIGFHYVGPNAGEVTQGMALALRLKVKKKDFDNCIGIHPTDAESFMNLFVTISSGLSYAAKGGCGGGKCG
Format: biochemical
Method: Recombinant TGR, human TrxR1, B. malayi (Bm)TrxR and human GR proteins were expressed and purified as described[20],[69],[79]. The codon optimized sequence for P. falciparum (PfTrxR, https://www.ncbi.nlm.nih.gov/protein/CAA60574.1/) with an N-terminal 6-His tag was synthesized and inserted into pET15b (GenScript) and expressed in BL21 (DE3) cells and purified as described for human GR[20]. TGR and TrxR enzyme inhibition assays were performed in triplicate at 25 °C as described[20] in 0.1 M potassium phosphate (pH 7.4), 10 mM EDTA, 100 µM NADPH and 0.01% Tween-20. TGR, human TrxR1 and BmTrxR (all at 4 nM) and PfTrxR (50 nM) were preincubated with the compounds for 15 min. The reaction was started with addition of an equal volume of DTNB (6 mM) and NADPH (100 µM) and the increase in A412 during the first 3 min was recorded. […] The reaction was preincubated for 15 min. Activity was initiated with the addition of 1 mM GSSG and 100 μM NADPH and initial rates of NADPH oxidation were monitored at 340 nm. The reactions were done in triplicate. The IC50 was calculated in GraphPad Prism.

SMILES	inhibition at 10 µM	inhibition at 25 µM	inhibition at 50 µM
CCc1ccccc1-c1nc(CN[C@@H]2C[C@@H]3C[C@H]([C@H]2C)C3(C)C)c(C)o1 [Compound 2]	-8.06%	-45.1%	-32.7%
Cc1oc(C2CCCCC2)nc1CN[C@@H]1C[C@@H]2C[C@H]([C@H]1C)C2(C)C [Compound 4]	1.8%	4.57%	18.1%
Cc1oc(-c2ccc3ccccc3c2)nc1CNC1CCCCCC1 [Compound 5]	-1.11%	-0.0146%	-1.37%
Cc1oc(C2CCCCC2)nc1C(=O)N[C@@H]1C[C@@H]2C[C@H]([C@H]1C)C2(C)C [Compound 7]	-0.315%	4.13%	10.8%
C[C@@H]1[C@H]2C[C@@H](C[C@H]1NCc1nc3ccccc3n1C1CCCCCC1)C2(C)C [Compound 8]	-0.482%	-0.643%	-0.523%

Same assay, conditions: 50 µM, the highest concentration tested

SMILES	PfTrxR % inhibition at 50 µM
CCc1ccccc1-c1nc(CN[C@@H]2C[C@@H]3C[C@H]([C@H]2C)C3(C)C)c(C)o1 [Compound 2]	n.i.
Cc1oc(-c2ccc3ccccc3c2)nc1CNC1CCCCCC1 [Compound 5]	n.i.

Same assay, conditions: read-out: PfTrxR % inhibition at 50 µM

SMILES	inhibition at 50 µM
Cc1oc(C2CCCCC2)nc1CN[C@@H]1C[C@@H]2C[C@H]([C@H]1C)C2(C)C [Compound 4]	18%

These compounds were tested on TGR in newly transformed schistosomula (NTS) (assay: TGR inhibition in NTS with TRFS-Green fluorescent probe). Conditions: 2 h with inhibitor (30 µM; AF 3 µM) then TRFS-Green 10 µM.
Format: cell-based, S. mansoni
Method: TGR inhibition in NTS was assessed using a fluorescent probe TRFS-Green (Medchemexpress)[43]. NTS prepared as previously described and cultured in M199 supplemented with 5.5 mM D-glucose, penicillin-streptomycin and 5% heat inactivated fetal bovine serum were incubated at 37 °C in a clear bottom flat well plate in a 5% CO2 incubator overnight. […] NTS were further treated with TRFS-Green (10 µM) for additional 4 h and rinsed with M199 medium to remove residual TRFS-Green. Fluorescence images were obtained using Keyence BZ-X800. The quantification of fluorescence intensity upon the uptake of TRFS-Green by NTS was performed by a fluorescent microplate imager (BioTek Cytation3) (excitation, 438 nm; emission, 538 nm) hourly for 5 h and after 24 h.

SMILES	TRFS-Green fluorescence in NTS
CCc1ccccc1-c1nc(CN[C@@H]2C[C@@H]3C[C@H]([C@H]2C)C3(C)C)c(C)o1 [Compound 2]	significant decreases in fluorescence
Cc1oc(C2CCCCC2)nc1CN[C@@H]1C[C@@H]2C[C@H]([C@H]1C)C2(C)C [Compound 4]	significant decreases in fluorescence
Cc1oc(C2CCCCC2)nc1C(=O)N[C@@H]1C[C@@H]2C[C@H]([C@H]1C)C2(C)C [Compound 7]	significant decreases in fluorescence
C[C@@H]1[C@H]2C[C@@H](C[C@H]1NCc1nc3ccccc3n1C1CCCCCC1)C2(C)C [Compound 8]	significant decreases in fluorescence

Same assay, conditions: compound at 5 µM

SMILES	production of green fluorescent dye in TRFS-green assay
CCc1ccccc1-c1nc(CN[C@@H]2C[C@@H]3C[C@H]([C@H]2C)C3(C)C)c(C)o1 [Compound 2]	abolished

What follows are compounds tested on S. japonicum adult worms (assay: Schistosomicidal activity ex vivo, S. japonicum adult worms). Conditions: 48 h exposure.
Format: cell-based
Method: Three-week old, female Swiss-Webster mice obtained from the Charles River were housed in the Comparative Research Center of Rush University Medical Center. Mice were infected by percutaneous tail exposure to about 200 S. mansoni or 50 S. japonicum cercaria for adult worms and about 1000 cercaria for juvenile S. mansoni worms through natural transdermal penetration of the cercariae for 1 h[81].
DMSO formulated compounds were diluted with phenol red free M199 medium or RPMI medium for NTS or juvenile and adult worms, respectively, at <1% DMSO final concentrations. NTS, juvenile and adult worms from overnight cultures were tested against compounds in triplicate. Controls were treated with DMSO alone or 5 µM AF as a positive control in appropriate medium. […] Schistosome viabilities in the presence of the compounds were assessed using this formula: % Viability = Averages of Test / Averages of DMSO Control x 100.

SMILES	LD50 ex vivo S. japonicum adult
CCc1ccccc1-c1nc(CN[C@@H]2C[C@@H]3C[C@H]([C@H]2C)C3(C)C)c(C)o1 [Compound 2]	11.1 ± 1.35 µM
Cc1oc(C2CCCCC2)nc1CN[C@@H]1C[C@@H]2C[C@H]([C@H]1C)C2(C)C [Compound 4]	27.1 ± 1.75 µM
Cc1oc(C2CCCCC2)nc1C(=O)N[C@@H]1C[C@@H]2C[C@H]([C@H]1C)C2(C)C [Compound 7]	26.8 ± 1.62 µM
C[C@@H]1[C@H]2C[C@@H](C[C@H]1NCc1nc3ccccc3n1C1CCCCCC1)C2(C)C [Compound 8]	25.8 ± 1.87 µM

Same assay, conditions: Schistosoma japonicum; S. japonicum adult worms, 48 hr, Conc. 5 µM

SMILES	viability at 5 µM
CCc1ccccc1-c1nc(CN[C@@H]2C[C@@H]3C[C@H]([C@H]2C)C3(C)C)c(C)o1 [Compound 2]	52.5%
Cc1oc(C2CCCCC2)nc1C(=O)N[C@@H]1C[C@@H]2C[C@H]([C@H]1C)C2(C)C [Compound 7]	89%
C[C@@H]1[C@H]2C[C@@H](C[C@H]1NCc1nc3ccccc3n1C1CCCCCC1)C2(C)C [Compound 8]	70.6%

Same assay, conditions: Schistosoma japonicum; S. japonicum adult worms, 48 hr, Conc. 15 µM

SMILES	viability at 15 µM
CCc1ccccc1-c1nc(CN[C@@H]2C[C@@H]3C[C@H]([C@H]2C)C3(C)C)c(C)o1 [Compound 2]	30.6%
Cc1oc(C2CCCCC2)nc1C(=O)N[C@@H]1C[C@@H]2C[C@H]([C@H]1C)C2(C)C [Compound 7]	71.1%
C[C@@H]1[C@H]2C[C@@H](C[C@H]1NCc1nc3ccccc3n1C1CCCCCC1)C2(C)C [Compound 8]	60.8%

Same assay, conditions: Schistosoma japonicum; S. japonicum adult worms, 48 hr, Conc. 30 µM

SMILES	viability at 30 µM
CCc1ccccc1-c1nc(CN[C@@H]2C[C@@H]3C[C@H]([C@H]2C)C3(C)C)c(C)o1 [Compound 2]	3.64%
Cc1oc(C2CCCCC2)nc1C(=O)N[C@@H]1C[C@@H]2C[C@H]([C@H]1C)C2(C)C [Compound 7]	39.8%
C[C@@H]1[C@H]2C[C@@H](C[C@H]1NCc1nc3ccccc3n1C1CCCCCC1)C2(C)C [Compound 8]	43.4%

These compounds were tested against BmTrxR (Brugia malayi, UniProt A0A1I9G0T9) (assay: B. malayi TrxR enzyme inhibition). Conditions: 50 µM, the highest concentration tested.
Sequence of BmTrxR (A0A1I9G0T9 entry or part of it, added parts left off): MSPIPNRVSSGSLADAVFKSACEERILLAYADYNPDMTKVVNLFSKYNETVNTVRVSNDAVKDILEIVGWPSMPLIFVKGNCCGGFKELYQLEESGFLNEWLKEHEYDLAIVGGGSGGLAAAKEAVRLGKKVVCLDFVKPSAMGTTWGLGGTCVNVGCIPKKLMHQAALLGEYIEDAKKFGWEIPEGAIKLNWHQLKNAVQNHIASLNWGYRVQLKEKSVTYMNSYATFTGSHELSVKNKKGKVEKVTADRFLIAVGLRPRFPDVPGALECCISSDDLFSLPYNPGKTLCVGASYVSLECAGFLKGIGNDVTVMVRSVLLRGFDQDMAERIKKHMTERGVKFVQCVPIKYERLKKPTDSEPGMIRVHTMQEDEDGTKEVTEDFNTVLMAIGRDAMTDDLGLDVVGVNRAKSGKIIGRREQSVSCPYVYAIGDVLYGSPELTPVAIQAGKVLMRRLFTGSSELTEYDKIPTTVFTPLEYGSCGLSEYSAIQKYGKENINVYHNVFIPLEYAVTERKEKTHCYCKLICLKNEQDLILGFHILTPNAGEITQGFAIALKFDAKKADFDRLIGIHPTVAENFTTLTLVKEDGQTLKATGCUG
Format: biochemical
Method: Recombinant TGR, human TrxR1, B. malayi (Bm)TrxR and human GR proteins were expressed and purified as described[20],[69],[79]. The codon optimized sequence for P. falciparum (PfTrxR, https://www.ncbi.nlm.nih.gov/protein/CAA60574.1/) with an N-terminal 6-His tag was synthesized and inserted into pET15b (GenScript) and expressed in BL21 (DE3) cells and purified as described for human GR[20]. […] The reaction was started with addition of an equal volume of DTNB (6 mM) and NADPH (100 µM) and the increase in A412 during the first 3 min was recorded. […] Activity was initiated with the addition of 1 mM GSSG and 100 μM NADPH and initial rates of NADPH oxidation were monitored at 340 nm. The reactions were done in triplicate. The IC50 was calculated in GraphPad Prism.

SMILES	BmTrxR % inhibition at 50 µM
Cc1oc(C2CCCCC2)nc1CN[C@@H]1C[C@@H]2C[C@H]([C@H]1C)C2(C)C [Compound 4]	n.i.

Same assay, conditions: BmTrxR, 10 µM compound, mean of 3 replicates; read-out: % inhibition

SMILES	inhibition at 10 µM
CCc1ccccc1-c1nc(CN[C@@H]2C[C@@H]3C[C@H]([C@H]2C)C3(C)C)c(C)o1 [Compound 2]	0.63%
Cc1oc(C2CCCCC2)nc1CN[C@@H]1C[C@@H]2C[C@H]([C@H]1C)C2(C)C [Compound 4]	-0.192%
Cc1oc(-c2ccc3ccccc3c2)nc1CNC1CCCCCC1 [Compound 5]	-0.384%
Cc1oc(C2CCCCC2)nc1C(=O)N[C@@H]1C[C@@H]2C[C@H]([C@H]1C)C2(C)C [Compound 7]	-2.13%
C[C@@H]1[C@H]2C[C@@H](C[C@H]1NCc1nc3ccccc3n1C1CCCCCC1)C2(C)C [Compound 8]	17.7%

Same assay, conditions: BmTrxR, 25 µM compound, mean of 3 replicates; read-out: % inhibition

SMILES	inhibition at 25 µM
CCc1ccccc1-c1nc(CN[C@@H]2C[C@@H]3C[C@H]([C@H]2C)C3(C)C)c(C)o1 [Compound 2]	5.59%
Cc1oc(C2CCCCC2)nc1CN[C@@H]1C[C@@H]2C[C@H]([C@H]1C)C2(C)C [Compound 4]	0.661%
Cc1oc(-c2ccc3ccccc3c2)nc1CNC1CCCCCC1 [Compound 5]	3.27%
Cc1oc(C2CCCCC2)nc1C(=O)N[C@@H]1C[C@@H]2C[C@H]([C@H]1C)C2(C)C [Compound 7]	-0.458%
C[C@@H]1[C@H]2C[C@@H](C[C@H]1NCc1nc3ccccc3n1C1CCCCCC1)C2(C)C [Compound 8]	43.3%

Same assay, conditions: BmTrxR, 50 µM compound, mean of 3 replicates; read-out: % inhibition

SMILES	inhibition at 50 µM
CCc1ccccc1-c1nc(CN[C@@H]2C[C@@H]3C[C@H]([C@H]2C)C3(C)C)c(C)o1 [Compound 2]	12.9%
Cc1oc(C2CCCCC2)nc1CN[C@@H]1C[C@@H]2C[C@H]([C@H]1C)C2(C)C [Compound 4]	0.575%
Cc1oc(-c2ccc3ccccc3c2)nc1CNC1CCCCCC1 [Compound 5]	9.07%
Cc1oc(C2CCCCC2)nc1C(=O)N[C@@H]1C[C@@H]2C[C@H]([C@H]1C)C2(C)C [Compound 7]	-0.00455%
C[C@@H]1[C@H]2C[C@@H](C[C@H]1NCc1nc3ccccc3n1C1CCCCCC1)C2(C)C [Compound 8]	68.2%

Same assay, conditions: read-out: BmTrxR % inhibition at 50 µM; 50 µM, the highest concentration tested

SMILES	inhibition at 50 µM
CCc1ccccc1-c1nc(CN[C@@H]2C[C@@H]3C[C@H]([C@H]2C)C3(C)C)c(C)o1 [Compound 2]	13%
Cc1oc(-c2ccc3ccccc3c2)nc1CNC1CCCCCC1 [Compound 5]	9%
Cc1oc(C2CCCCC2)nc1C(=O)N[C@@H]1C[C@@H]2C[C@H]([C@H]1C)C2(C)C [Compound 7]	11%
C[C@@H]1[C@H]2C[C@@H](C[C@H]1NCc1nc3ccccc3n1C1CCCCCC1)C2(C)C [Compound 8]	67.7%
